Data taken from the supplement of paper PMC10307832.

How the values were obtained:
Assay in all cases: relative viability (nuclei count vs DMSO), 5 days (fraction); higher = more cells survive
NCI-H1395 = system: NCI-H1395
Summary of the method: (§1)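 Lung cancer cell lines were pin-tool dosed in 1536-well plates on the day after seeding, with either a lone drug or a fixed anchor-drug dose plus five library-drug doses (not always all listed) in √10 steps. Nuclei were counted on 4× images after 5 days. Relative viability is the ratio of treated-well to vehicle-well nuclei counts, with each value a median of duplicate plates.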

NCI-H650 = system: NCI-H650
Summary of the method: as §1

NCI-H2170 = system: NCI-H2170
Summary of the method: as §1

HARA = system: HARA
Summary of the method: as §1

LU99A = system: LU99A
Summary of the method: as §1

NCI-H1793 = system: NCI-H1793
Summary of the method: as §1

NCI-H23 = system: NCI-H23
Summary of the method: as §1

LXF-289 = system: LXF-289
Summary of the method: as §1

NCI-H1666 = system: NCI-H1666
Summary of the method: as §1

NCI-H2023 = system: NCI-H2023
Summary of the method: as §1

PC-3 [JPC-3] = system: PC-3 [JPC-3]
Summary of the method: as §1

NCI-H460 = system: NCI-H460
Summary of the method: as §1

O=c1[nH]c2ccccc2n1C1CCN(CCCC(c2ccc(F)cc2)c2ccc(F)cc2)CC1 [Pimozide] + N=C(N)NC(=N)NCCc1ccccc1 [Phenformin] (partner 250 µM)
relative viability (NCI-H1395; first compound 0.08 µM): 0.411 | relative viability (NCI-H1395; first compound 0.253 µM): 0.405 | relative viability (NCI-H1395; first compound 0.8 µM): 0.411 | relative viability (NCI-H1395; first compound 2.53 µM): 0.42 | relative viability (NCI-H1395; first compound 8 µM): 0.403 | relative viability (NCI-H650; first compound 0.08 µM): 0.445 | relative viability (NCI-H650; first compound 0.253 µM): 0.452 | relative viability (NCI-H650; first compound 0.8 µM): 0.417 | relative viability (NCI-H650; first compound 2.53 µM): 0.467 | relative viability (NCI-H650; first compound 8 µM): 0.457 | relative viability (NCI-H2170; first compound 0.08 µM): 0.411 | relative viability (NCI-H2170; first compound 0.253 µM): 0.383 | relative viability (NCI-H2170; first compound 0.8 µM): 0.44 | relative viability (NCI-H2170; first compound 2.53 µM): 0.399 | relative viability (NCI-H2170; first compound 8 µM): 0.367 | relative viability (HARA; first compound 0.253 µM): 0.503 | relative viability (HARA; first compound 0.8 µM): 0.405 | relative viability (HARA; first compound 2.53 µM): 0.423 | relative viability (HARA; first compound 8 µM): 0.431 | relative viability (LU99A; first compound 0.08 µM): 0.803 | relative viability (LU99A; first compound 0.253 µM): 0.837 | relative viability (LU99A; first compound 0.8 µM): 0.573 | relative viability (LU99A; first compound 2.53 µM): 0.765 | relative viability (LU99A; first compound 8 µM): 0.897 | relative viability (NCI-H1793; first compound 0.253 µM): 0.29 | relative viability (NCI-H1793; first compound 0.8 µM): 0.226 | relative viability (NCI-H1793; first compound 2.53 µM): 0.237 | relative viability (NCI-H1793; first compound 8 µM): 0.356 | relative viability (NCI-H23; first compound 0.08 µM): 0.782 | relative viability (NCI-H23; first compound 0.253 µM): 0.741 | relative viability (NCI-H23; first compound 0.8 µM): 0.673 | relative viability (NCI-H23; first compound 2.53 µM): 0.692 | relative viability (NCI-H23; first compound 8 µM): 0.79 | relative viability (LXF-289; first compound 0.08 µM): 0.501 | relative viability (LXF-289; first compound 0.253 µM): 0.502 | relative viability (LXF-289; first compound 0.8 µM): 0.475 | relative viability (LXF-289; first compound 2.53 µM): 0.505 | relative viability (LXF-289; first compound 8 µM): 0.487 | relative viability (NCI-H1666; first compound 0.08 µM): 0.608 | relative viability (NCI-H1666; first compound 0.253 µM): 0.5 | relative viability (NCI-H1666; first compound 0.8 µM): 0.597 | relative viability (NCI-H1666; first compound 2.53 µM): 0.555 | relative viability (NCI-H1666; first compound 8 µM): 0.513 | relative viability (NCI-H2023; first compound 0.08 µM): 0.41 | relative viability (NCI-H2023; first compound 0.253 µM): 0.403 | relative viability (NCI-H2023; first compound 0.8 µM): 0.397 | relative viability (NCI-H2023; first compound 2.53 µM): 0.385 | relative viability (NCI-H2023; first compound 8 µM): 0.354 | relative viability (PC-3 [JPC-3]; first compound 0.08 µM): 0.357 | relative viability (PC-3 [JPC-3]; first compound 0.253 µM): 0.469 | relative viability (PC-3 [JPC-3]; first compound 0.8 µM): 0.451 | relative viability (PC-3 [JPC-3]; first compound 2.53 µM): 0.486 | relative viability (PC-3 [JPC-3]; first compound 8 µM): 0.403 | relative viability (NCI-H460; first compound 0.08 µM): 0.556 | relative viability (NCI-H460; first compound 0.253 µM): 0.507 | relative viability (NCI-H460; first compound 0.8 µM): 0.501
